The values below come from paper PMC11289669, “BAR502/fibrate conjugates: synthesis, biological evaluation and metabolic profile” (Frontiers in Chemistry, 2024).

Where “and” joins values, the source holds several entries; their conditions need not be identical. Equal values may be shown once. Entries after “also recorded” stand apart in the source; their conditions may differ.

One data set concerns the target T1, PPARα (Homo sapiens, UniProt Q07869).
T1 construct: 20 nM PPARα LBD GST fused (Thermo Scientific); purchased Thermo Scientific
T1 sequence (Q07869 239-466 limits assumed): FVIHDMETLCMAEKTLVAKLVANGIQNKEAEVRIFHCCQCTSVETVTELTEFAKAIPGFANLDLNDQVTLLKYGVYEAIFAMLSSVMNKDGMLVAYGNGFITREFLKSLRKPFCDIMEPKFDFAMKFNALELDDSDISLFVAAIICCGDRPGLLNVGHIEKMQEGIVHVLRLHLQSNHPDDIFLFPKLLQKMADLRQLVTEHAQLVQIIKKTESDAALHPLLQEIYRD
Put plainly: AlphaScreen coactivator (SRC-1) recruitment assay on PPARα. To be noted: AlphaScreen SRC-1 recruitment; compounds at 50 µM (footnote); fenofibrate = 100%. The data set is classed as biochemical. The protocol: Compounds’ ability to mediate cofactor recruitment was evaluated by employing AlphaScreen GST Detection Kit (PerkinElmer). Particularly, FXR agonism was evaluated employing 10 nM FXR-LBD GST-fused (Thermo Scientific) and 30 nM of biotinylated SRC1 peptide ([…]) in the presence of 20 μg/mL donor and acceptor beads and in buffer containing 50 mM Tris-HCl (pH7.4), 20 mM KCl, 1 mM DTT, and 0.1% BSA. For PPARα assay, a buffer containing 50 mM MOPS, 50 mM NaF, 0.05 mM CHAPS, and 0.05% BSA (pH = 7.4) was used, and 20 nM PPARα LBD GST fused (Thermo Scientific) and 60 nM of biotinylated SRC1 peptide were employed. Both acceptor and donor beads were added to reach 20 μg/mL final concentration. Incubations were performed in a final volume of 25 μL employing 384 wells Optiplate and Alpha signal was measured with Envision 2,105 (Perkin Elmer) multimode plate reader. […]
(In general: In Alpha technology, singlet oxygen from a donor bead excites a nearby acceptor bead.)

For a further data set, the target named is T2, FXR (Homo sapiens, UniProt Q96RI1).
T2 construct: expressed in transfected cells; host or cells: HepG2 (the text says EC50 dose-response curves were run in HEK-293T)
T2 sequence (Q96RI1 1-486): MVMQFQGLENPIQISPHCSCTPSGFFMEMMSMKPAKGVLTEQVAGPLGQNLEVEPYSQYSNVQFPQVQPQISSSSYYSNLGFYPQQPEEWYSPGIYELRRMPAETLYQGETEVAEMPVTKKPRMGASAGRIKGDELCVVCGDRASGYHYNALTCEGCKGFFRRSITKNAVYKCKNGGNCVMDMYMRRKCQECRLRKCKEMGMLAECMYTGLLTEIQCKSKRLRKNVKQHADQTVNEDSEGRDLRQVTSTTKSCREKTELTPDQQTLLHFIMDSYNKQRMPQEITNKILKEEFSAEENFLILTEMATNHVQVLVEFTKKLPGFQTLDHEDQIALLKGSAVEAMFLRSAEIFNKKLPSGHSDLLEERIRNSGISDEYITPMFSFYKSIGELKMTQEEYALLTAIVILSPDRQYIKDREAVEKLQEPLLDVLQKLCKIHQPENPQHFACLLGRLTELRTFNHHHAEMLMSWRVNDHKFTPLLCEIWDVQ
T2 sequence (P19793 1-462 partner): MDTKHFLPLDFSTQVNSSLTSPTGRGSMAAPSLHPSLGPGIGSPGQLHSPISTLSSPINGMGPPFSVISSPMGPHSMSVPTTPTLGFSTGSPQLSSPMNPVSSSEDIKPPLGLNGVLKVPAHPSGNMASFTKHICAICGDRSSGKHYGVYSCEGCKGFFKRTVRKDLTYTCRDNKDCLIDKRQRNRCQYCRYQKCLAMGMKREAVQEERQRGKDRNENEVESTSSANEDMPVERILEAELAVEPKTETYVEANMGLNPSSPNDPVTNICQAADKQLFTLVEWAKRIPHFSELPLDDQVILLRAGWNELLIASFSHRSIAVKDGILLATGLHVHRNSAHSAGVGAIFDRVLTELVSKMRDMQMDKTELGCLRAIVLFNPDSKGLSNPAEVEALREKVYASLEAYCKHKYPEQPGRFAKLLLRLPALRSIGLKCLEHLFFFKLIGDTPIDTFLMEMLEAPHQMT
Nature of the data set: FXR transactivation (luciferase reporter) assay in HepG2 cells. The data set is classed as cell-based. To be noted: HepG2 cells. The method, then: HepG2 and HEK-293T cells were cultured at 37 °C in minimal essential medium (MEM) and Dulbecco’s Modified Eagle Medium (DMEM) respectively, supplemented with 10% fetal bovine serum, 1% L-glutamine, 100 U/mL penicillin, and 100 μg/mL streptomycin. To investigate FXR-mediated transactivation, the HepG2 cells were transfected with 200 ng of the reporter vector p (hsp27)TK-Luc containing the FXR response element IR1 cloned from the promoter of heat shock protein 27 (hsp27), plus 100 ng pSG5-FXR, 100 ng pSG5-RXR, and 100 ng pGL4.70 Renilla. To evaluate GPBAR1 mediated transactivation, HEK-293T cells were transfected with 200 ng of human pGL4.29 (Promega), a reporter vector containing a cAMP response element (CRE) that drives the transcription of the luciferase reporter gene luc2P, with 100 ng of pCMVSPORT6-human GPBAR1, and with 100 ng of pGL4.70. At 24 h post-transfection, cells were stimulated 18 h with 10 μM TLCA (taurolithocholic acid a GPBAR1 agonist) or CDCA (FXR agonist) and compounds. To calculate the EC50 on FXR and GPBAR1, dose-response curves were performed in HEK-293T cells transfected as described above and then treated with increasing concentrations of compounds (from 0.1 to 50 µM). After treatments, cells were lysed in 100 μL of lysis buffer (25 mM Tris-phosphate, pH 7.8; 2 mM DTT; 10% glycerol; 1% Triton X-100), and 10 μL of cellular lysate was assayed for luciferase activity using the Firfly &Renilla Luciferase assay kit (Biotium). Luminescence was measured using Glomax 20/20 luminometer (Promega). Luciferase activities were assayed and normalized with Renilla activities.
Background: A reporter such as luciferase makes a cellular process visible.

Data set [1] is described as follows: Microsomal stability in human liver microsomes. The data set is classed as in vitro ADME. To be noted: pH 7.4, 1 µM. The method, then: Chemical stability in HCl Buffer, PBS buffer and culture medium (EMEM) was evaluated by LC-MS dissolving compound 1 at 10 μM (final concertation) in cited buffers and injecting aliquots removed from incubations at different time points. Microsomal stability was evaluated employing 50 mM potassium phosphate buffer (pH 7.4) containing 0.15 mg of Human liver microsomes (Sigma-Aldrich, St. Louis, MO, United States) 5 mM MgCl2, 1 mM NADPH, 5 mM glucose 6-phosphate, 0.4 U·mL^−1 glucose 6-phosphate dehydrogenase. Compounds were tested at 1 µM final concentration. Aliquots, removed at different time points, were diluted with ice-cold acetonitrile and analyzed by LC-MS.
In general terms: Liver microsomes are a subcellular fraction often used to study metabolism.

Data set [2] can be described thus: Plasma profile / metabolite quantization in mice (LC-MS MRM). In kind it is in vivo.

By EC50 is commonly meant the concentration needed to bring the measured effect to its halfway point. The low end stands for higher potency in that assay, the high end for lower potency in that assay. Take `CC[C@H]1[C@@H](O)[C@@H]2[C@H](CC[C@]3(C)[C@@H]([C@H](C)CCO)CC[C@@H]23)[C@@]2(C)CC[C@@H](O)C[C@@H]12` [BAR502, 6α-ethyl-3α,7α-dihydroxy-24-nor-5β-cholan-23-ol]: at PPARα, the “PPARα efficacy (% vs. fenofibrate)” value is 36% and 36 ± 12%. In addition, the EC50 at FXR amounted to 2 ± 0.2 µM.
In general, microsomal CLint refers to the rate of metabolic loss divided by the concentration. Consider `CC[C@@H]1C2C[C@H](O)CC[C@]2(C)C2CC[C@@]3(C)C(CC[C@@H]3[C@H](C)CCOC(=O)C(C)(C)Oc3ccc(Cl)cc3)C2[C@@H]1O` (some centres unmarked) [Compound 1], for which the EC50 at FXR was 2.8 ± 0.01 µM. The microsomal CLint at 1 µM in data set [1] was 87 µL/min/mg. Moreover, the half-life at 1 µM in data set [1] (read-out: t1/2 in human microsomes) was 27 min. Further, in data set [2] (mice treated with compound 1, 30 mg/kg), the “Plasma level of oxidized metabolite BAR505” value is “highly abundant species”. In data set [2] (mice, 30 mg/kg), the “Plasma clofibric acid released, compared with that from clofibrate” value is given as “superimposable”. Besides, the “Unmodified compound in plasma” value in data set [2] (mice, 30 mg/kg, 0-8 h) was “not detected; also recorded: not found”.
